Laboratory results reported in patent publication US12357598B2, “Treatment of neurodevelopmental disorders” (THE REGENTS OF THE UNIVERSITY OF CALIFORNIA, priority 2018, dated 2025).

Tests used:
Assay type in all cases: in vivo, mouse
ddY mice = experiment: Novel object recognition test (NORT), offspring after MIA
Experimental: Experiments of TPPU in drinking water. For experiment of TPPU (synthesized at UC Davis, CA) in drinking water in juvenile and adolescent stages, TPPU (15 mg/L) or water in drinking water was given in the male offspring from P28 to P56. Subsequently, normal water was given to all groups for 4 weeks (P57-P84). Behavioral tests of adult offspring were performed during adulthood (P70-P84) after prenatal poly(I:C) injections (FIG. 4A).
For experiment of TPPU in drinking water in pregnant stages, TPPU (15 mg/L) or water in drinking water was given in the pregnant mice from E12 to P21. Subsequently, normal water was given to all groups for […] (P21-P42). Behavioral tests of offspring were performed during juvenile stage (P28-P42) after prenatal poly(I:C) injections (FIG. 6A).
Novel Object Recognition Test (NORT): Mice were habituated for 10 minutes in the box for 3 straight days. At 4th day, two objects (differing in shape and color but of similar size) were placed in the box 35.5 cm apart (symmetrically), and each animal was allowed to explore in the box for 5 minutes. […] The time that mice spent exploring each object was recorded. […] The mice were then allowed to explore freely for 5 minutes, and the time spent exploring each object was recorded. […]

parvalbumin (PV) = experiment: PV-immunohistochemistry in mPFC after maternal glyphosate exposure; conditions: juvenile offspring of maternal glyphosate exposure vs water treated group
Experimental: PV-immunohistochemistry. Immunohistochemistry of PV was performed as reported previously (7,13,16,17). Mice were anesthetized with 5% isoflurane and sodium pentobarbital (50 mg/kg), and perfused transcardially with 10 mL of saline, followed by 30 mL of ice-cold 4% paraformaldehyde in 0.1M phosphate buffer (pH 7.4). Brains were removed from the skulls and post fixed overnight at 4° C. in the same fixative. For the immunohistochemical analysis, 50 μm-thick serial, coronal sections of brain tissue were cut in ice-cold 0.01M phosphate buffered saline (pH 7.4) using a vibrating blade microtome (VT1000s, Leica Microsystems, Tokyo, Japan). Mounted on gelatinized slides brain sections were washed by PBS for three times and then blocked in PBS containing 0.3% Triton X-100 (PBST) and 3% normal serum for 1 h at room temperature. The samples were then incubated for 24 h at 4° C. with […] polyclonal anti-parvalbumin (PV) antibody (1:100, abcam, ab11427) in PBST with 1% normal serum. After that the sections were washed three times in PBS and then incubated for 2 h in room temperature with Alexa Fluor 488 Polyclonal Antibody (1:1000, Invitrogen, A11094). […] The PV-immunofluorescent-positive cells in the inflalimbic (IL) and prelimbic (PrL) regions (0.05 mm^2) of mPFC was analyzed using a fluorescence microscope with a CCD camera (Olympus IX70, Tokyo, Japan) and the SCION IMAGE software package. […]

pregnant ddY mice = experiment: General data (mortality, body weight, behavioral abnormality) of mothers and offspring after maternal glyphosate exposure; conditions: for Behavioral abnormality: juvenile offspring
Experimental: Treatment of glyphosate in drinking water into pregnant mice. Previous studies used drinking water containing 0.38% glyphosate (1% Roundup®) during pregnancy and lactation, equivalent to 50 mg/kg/day of glyphosate (1,2). This does correspond with 1/20 of the glyphosate no-observed-adverse-effect level, as described previously (3). Therefore, water or glyphosate [or 0.1, 0.25, 0.50, 0.75, 1.0% Roundup®, Nissan Chemical Corporation, Tokyo, Japan] were given to the pregnant mice from E5 to P21 (weaning). The male offspring were separated from their mothers at weaning (P21), and mice were caged each three-five in the groups in clear polycarbonate cage (22.5×33.8×14.0 cm). Mice were housed under controlled temperatures and 12 hour light/dark cycles (lights on between 07:00-19:00 h), with ad libitum food and water.
Treatment of TPPU. TPPU was dissolved in polyethylene glycol 400 (PEG 400: Tokyo Chemical Industry Co., Ltd, Tokyo, Japan). TPPU (3 mg/kg/day) or vehicle (5 ml/kg, PEG 400) was administered orally in the pregnant mice from E5 to P21. Behavioral tests of offspring were performed during juvenile stage (P28-P35) after maternal glyphosate exposure (FIG. 1A).

[1] = 0.038% glyphosate (0.1% Roundup)
[2] = 0.095% glyphosate (0.25% Roundup)
[3] = 0.19% glyphosate (0.50% Roundup)
[4] = 0.285% glyphosate (0.75% Roundup)

polyriboinosinic-polyribocytidilic acid [Poly(I:C)]
exploratory preference in NORT (ddY mice; adult offspring after prenatal poly(I:C) exposure): Decreased | exploratory preference, retention session of NORT (ddY mice; juvenile offspring, poly(I:C)+water group vs saline+water group): significantly lower

O=C(O)CNCP(=O)(O)O [glyphosate]
PV-immunoreactivity in the prelimbic (PrL) of medial PFC (parvalbumin (PV)): significantly lower | Alive number of offspring on P21 (pregnant ddY mice; [1]): 33 | Maternal mortality (pregnant ddY mice; [1]): 0% | Number of offspring born (pregnant ddY mice; [1]): 33 | Offspring mortality (pregnant ddY mice; [1]): 0% | Alive number of mothers on P0 (pregnant ddY mice; 0.038% glyphosate (0.1% Roundup), 3 mothers used): 3 | Alive number of offspring on P21 (pregnant ddY mice; [2]): 24 | Maternal mortality (pregnant ddY mice; [2]): 0% | Number of offspring born (pregnant ddY mice; [2]): 30 | Offspring mortality (pregnant ddY mice; [2]): 20% | Alive number of mothers on P0 (pregnant ddY mice; 0.095% glyphosate (0.25% Roundup), 3 mothers used): 3 | body weight of mothers at E17 (pregnant ddY mice; 0.095% glyphosate vs water exposure mothers): significantly lower | Alive number of offspring on P21 (pregnant ddY mice; [3]): 2 | Maternal mortality (pregnant ddY mice; [3]): 20% | Number of offspring born (pregnant ddY mice; [3]): 43 | Offspring mortality (pregnant ddY mice; [3]): 95.3% | Alive number of mothers on P0 (pregnant ddY mice; 0.19% glyphosate (0.50% Roundup), 5 mothers used): 4 | Alive number of offspring on P21 (pregnant ddY mice; [4]): 4 | Maternal mortality (pregnant ddY mice; [4]): 25% | Number of offspring born (pregnant ddY mice; [4]): 32 | Offspring mortality (pregnant ddY mice; [4]): 87.5% | Alive number of mothers on P0 (pregnant ddY mice; 0.285% glyphosate (0.75% Roundup), 4 mothers used): 3 | Alive number of offspring on P21 (pregnant ddY mice; 0.38% glyphosate (1% Roundup)): 0 | Number of offspring born (pregnant ddY mice; 0.38% glyphosate (1% Roundup)): 0 | Maternal mortality (pregnant ddY mice; 0.38% glyphosate (1% Roundup) in drinking water from E5): 100% | Alive number of mothers on P0 (pregnant ddY mice; 0.38% glyphosate (1% Roundup) in drinking water from E5, 4 mothers used): 0 | body weight of pregnant mice (pregnant ddY mice; glyphosate 0.038%-0.285%): increased gradually | body weight of pregnant mice (pregnant ddY mice; high concentration (0.38%) glyphosate): not increased | Behavioral abnormality (pregnant ddY mice; 0.038% glyphosate (0.1% Roundup), locomotion, three chamber test, forced swimming test): did not show any behavioral abnormality | Behavioral abnormality (pregnant ddY mice; [2]): observed
